Molecular target: T1, TtAbf62 (Thermothelomyces thermophilus, UniProt G2QJQ6)
T1 construct: gene MYCTH_55982; GH62; 321 residues with signal peptide MRPTRPGIVLLATATSVAG (1-19), replaced by alpha-factor signal (strain alpha-ABF); codon-optimized, secreted by Pichia pastoris X-33 (pPICZalphaA); N-glycosylated, 45-60 kDa (35 kDa deglycosylated); no purification described
Assay: HPLC of released arabinose
Assay type: biochemical
Details: 5 mg/mL substrate, 7.7 U/mL secreted enzyme, 50 mM sodium acetate pH 5.0, 60 °C, 1 h

T1 sequence (G2QJQ6 20-321): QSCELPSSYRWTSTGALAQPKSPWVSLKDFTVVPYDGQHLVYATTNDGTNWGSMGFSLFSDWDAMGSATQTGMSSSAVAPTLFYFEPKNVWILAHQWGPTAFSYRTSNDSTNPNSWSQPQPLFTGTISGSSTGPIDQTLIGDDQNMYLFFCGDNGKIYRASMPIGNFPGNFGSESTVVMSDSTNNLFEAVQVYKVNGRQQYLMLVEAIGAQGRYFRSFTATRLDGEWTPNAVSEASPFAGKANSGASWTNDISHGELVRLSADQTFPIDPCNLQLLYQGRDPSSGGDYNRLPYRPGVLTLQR

Compound | HPLC of released arabinose
OC[C@@H]1O[C@@H](O[C@H]2[C@H](O[C@@H]3CO[C@@H](O[C@@H]4COC(O)[C@H](O)[C@H]4O)[C@H](O)[C@H]3O)OC[C@@H](O)[C@@H]2O)[C@H](O)[C@H]1O (stereo partly drawn) [A^2XX, 2^3-α-L-arabinofuranosyl-xylotriose] | able to release arabinose from single-arabinofuranosyl arabinoxylo-oligosaccharides substrates (A^3X, A^2XX, and XA^3XX)
OC[C@@H]1O[C@@H](O[C@@H]2[C@@H](O)[C@H](O[C@@H]3COC(O)[C@H](O)[C@H]3O)OC[C@H]2O)[C@H](O)[C@H]1O (stereo partly drawn) [A^3X, 3^2-α-L-arabinofuranosyl-xylobiose] | able to release arabinose from single-arabinofuranosyl arabinoxylo-oligosaccharides substrates (A^3X, A^2XX, and XA^3XX)

Source: paper PMC10655120, “Highly efficient synergistic activity of an α-L-arabinofuranosidase for degradation of arabinoxylan in barley/wheat” (Frontiers in Microbiology, 2023)
